Laboratory results as given in patent publication US12247973B2, “Plasma membrane citrate transporter for use in the diagnosis and treatment of cancer” (Universitätsklinikum Regensburg, priority 2014, dated 2025).

Assays:
[1] = system: human prostate cancer PC-3M cells; assay: Survival of PC-3M cells under stress conditions, MTT assay; assay type: cell-based; conditions: serum-free media with 0.5 g/L glucose
Method: FIG. 16. Metastatic human prostate cancer PC-3M cells were grown in RPMI media supplemented with 0.5 g/L glucose and glutamine. Their survival rate was measured after 48 h and 72 h using an MTT assay. The control depicts survival of the cells with no extracellular citrate or glutamate.
4. Effect of gluconate on the survival of human prostate cancer PC-3M cells (16)

[2] = system: PC-3M cells; assay: Glucose uptake and lactate release in media of PC-3M cells; assay type: cell-based, human; conditions: 200 μM citrate, 24 h
Method: (§1) FIG. 3. Glycolytic activity and amino acid release. (A) Amount of glucose consumed and lactate released by PC-3M cells grown for 24 h with or without 200 μM citrate. (**P<0.01; n=5). (B) Concentrations of glycine, alanine and proline in the supernatants of PC-3M cells grown for 72 h with or without 200 μM citrate. (*P<0.05, **P<0.01; n=5). (C) Influence of extracellular citrate on the intracellular ratio of 13C-labeled to unlabelled free amino acids. PC-3M cells were incubated for 72h in media supplemented with [U-^13C]glucose with or without 200 μM unlabelled citrate, the ratio of ^13C incorporation into amino acids is shown. (*P<0.05, ***P<0.005; n=5). (D) Cell division in the presence or absence of extracellular citrate under normoxic conditions determined by flow cytometry. (*P<0.05, **P<0.01; n=6).
To assess glycolysis the inventors measured (unlabelled) glucose uptake and lactate release in the media from PC-3M cells incubated±200 μM citrate for 24 h. […] This effect is most likely related to increased conversion of pyruvate to lactate because of decreased mitochondrial citrate synthesis.
Metabolites were extracted with 80% methanol and measured by HPLC-ESI-MS/MS on an AB SCI EX (Framingham, MA, USA) Q TRAP™ 4000 system. […] Lactate and glucose in the media were measured as previously described^27.

[3] = system: PC-3M cells; assay: Flow cytometry-based cell division (cell cycle) study; set-up: species or system human; conditions: PC-3M cells cultured with supplemented citrate, normoxic
Method: as §1
An increase in the synthesis of amino acids in the presence of extracellular citrate prompted cell division testing. […] Therefore, metabolic changes induced by extracellular citrate affect metabolism to an extent that impacts cellular processes such as cell division.
Studies were performed as before^28. […] ROS production was detected with dihydrorhodamine 123 (Molecular Probes, Darmstadt, Germany). […] At least 10,000 live cells were measured per sample. Dead cells were detected using the Aqua Live/Dead cell kit (Molecular Probes).

[4] = system: normal PNT2-C2 cells; assay: ROS synthesis by flow cytometry in PNT2-C2 cells; assay type: cell-based, human; conditions: extracellular citrate
Method: FIG. 2. Impact of extracellular citrate on Krebs cycle activity. PC-3M cells were incubated for 72 h with 25 mM [U-13C]glucose with or without the addition of 200 μM unlabelled citrate. (A) Differences in the ratio of uniform ^13C incorporation into fully labelled Krebs cycle intermediates. (*P<0.05, ***P<0.005; n=5). (B) Differences in ROS synthesis determined by flow cytometry for PC-3M (left) and PNT2-C2 (right) cells. Cells were incubated in media containing FCS, dialysed FCS+200 μM citrate, or dialysed serum only. Shown are geometric means±SD. (*P<0.05; n=6-9). […] Changes in mCiC in mitochondrial protein derived from PNT2-C2 cells was also determined under normoxic conditions (right). […]
Changes in Krebs cycle activity were also determined by measuring the absolute amounts determined as a normalized response of the studied substrates (unlabelled and total ^13C depicting all substrates with any number of labelled carbons) in the presence or absence of unlabelled extracellular citrate (FIG. 7). […] Using flow cytometry the inventors also determined that ROS levels in PC-3M cells grown with extracellular citrate were decreases by about 20%, compared to cells grown in citrate-depleted dialysed serum (FIG. 2B); use of normal non-dialysed serum also reduces ROS levels. […]
Studies were performed as before^28. […] ROS production was detected with dihydrorhodamine 123 (Molecular Probes, Darmstadt, Germany). […]

[5] = system: benign PNT2-C2 cells; assay: Patch clamp, citrate-induced current in PNT2-C2 cells; assay type: cell-based, human; conditions: 10 mM gluconate, 10 mM citrate
Method: (§2) FIG. 14. Patch clamp recordings were performed on PC-3M (A) and PNT2-C2 (B) cells. […] Importantly, reduction in citrate-induced current in the presence of gluconate was irreversible. […] The effect of reduced citrate-induced current was greater in the case of PC-3M cells versus PNT2-C2 cells.
(§3) 2. Patch clamp on human prostate cancer PC-3M and benign PNT2-C2 cells (FIG. 14)
(§4) Extracellular application of citrate induced inward current in both cell lines as described earlier. […] As in the case of oocytes, gluconate inhibition of citrate-induced current was irreversible. Repeated application of citrate on PC-3M cells has been previously shown not to cause any reduction in citrate current (Mycielska et al., 2005).

[6] = system: pmCiC mRNA; assay: RealTime PCR, pmCiC mRNA expression in PC-3M cells; assay type: cell-based, human; conditions: media with citrate plus 5 mM gluconate vs citrate only
Method: (§5) FIG. 15. Metastatic human prostate cancer PC-3M cells were grown with extracellular citrate in the presence or absence of gluconate (5 mM). RealTime PCR was performed to assess changes to the mRNA expression level of pmCiC and mCiC.
(§6) 3. Effects of extracellular gluconate on pmCiC mRNA expression (FIG. 15)
(§7) We have studied the effect of gluconate in the extracellular media supplemented with citrate on the expression changes of pmCiC and mCiC as compared to the control conditions where the cells were incubated with extracellular citrate only. […] On the other hand, there was a significant mCiC mRNA increase, which would indicate increased mitochondrial activity to maintain intracellular citrate level.

[7] = system: human prostate cancer PC-3M cells; assay: Patch clamp, citrate-induced current in PC-3M cells; assay type: cell-based
Method: as §2, §3, §4

[8] = system: mCiC mRNA; assay: RealTime PCR, mCiC mRNA expression in PC-3M cells; assay type: cell-based, human; conditions: media with citrate plus 5 mM gluconate vs citrate only
Method: as §5, §6, §7

[9] = biological target: T1, pmCiC (Homo sapiens, UniProt P53007); assay: pmCiC expressed in oocytes, two electrodes voltage clamp, citrate-induced current; assay type: cell-based
T1 construct: expressed in transfected cells
Method: FIG. 13. Oocytes were injected with either pmCiC cDNA (A) or water (B).
1. pmCiC expression in oocytes—two electrodes voltage clamp (FIG. 13)
We have expressed pmCiC in oocytes and induced citrate inward current by introducing citrate into extracellular media. […] This reduction was irreversible, as subsequent application of citrate after gluconate removal from the media was not able to restore the primary response.

T1 sequence (P53007 with tags, fused parts or gaps limits assumed): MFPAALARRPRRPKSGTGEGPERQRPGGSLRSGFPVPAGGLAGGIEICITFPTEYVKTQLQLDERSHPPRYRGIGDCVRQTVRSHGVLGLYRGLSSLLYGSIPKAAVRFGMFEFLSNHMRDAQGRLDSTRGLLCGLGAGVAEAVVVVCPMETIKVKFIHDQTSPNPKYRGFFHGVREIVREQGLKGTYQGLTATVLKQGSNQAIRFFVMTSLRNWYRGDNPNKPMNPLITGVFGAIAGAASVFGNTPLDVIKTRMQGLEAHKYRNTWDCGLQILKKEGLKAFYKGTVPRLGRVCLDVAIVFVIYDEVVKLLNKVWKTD

O=C(O)CC(O)(CC(=O)O)C(=O)O [citrate]
survival of cancer cells under stress conditions with extracellular citrate ([1]; 200 μM citrate): increases survival | lactate production (absolute amount of lactate per media volume) [2]: unaffected | cell cycle phase distribution [3]: sharp increase in the G2/M phase | ROS synthesis [4]: did not affect ROS synthesis

O=C(O)[C@H](O)[C@@H](O)[C@H](O)[C@H](O)CO [gluconate]
citrate-induced current in the presence of gluconate [5]: decreased | survival of cells in the presence of extracellular citrate and gluconate ([1]; 200 μM citrate, 48 h and 72 h): protective effect of extracellular citrate is abolished | cell survival with gluconate in the absence of extracellular citrate ([1]; no citrate): no effect on cell survival | pmCiC mRNA expression [6]: significantly increased | reversibility of gluconate inhibition of citrate-induced current ([7]; PC-3M cells, 10 mM gluconate): irreversible | citrate-induced current in the presence of gluconate ([7]; PC-3M cells, 10 mM gluconate, 10 mM citrate): decreased | effect of repeated application of gluconate on citrate-induced current ([7]; repeated application): further citrate-induced current reduction | mCiC mRNA expression [8]: significantly increased | reversibility of the reduction of citrate-induced current ([9]; citrate applied again after gluconate removal from the media): irreversible | citrate-induced current in the presence of gluconate ([9]; oocytes injected with pmCiC cDNA, gluconate applied extracellularly): significantly decreased
